The numbers were not newly measured in patent US9370632B2, “Nasal treatment delivery device for mixed carbon dioxide and saline” (CLOVER HILL HEALTHCARE, INC., priority 2012, dated 2016), which cites them from elsewhere.

In the data set the test system is subjects with SAR, nasal allergen challenge (grass or ragweed allergen).

Regarding `O=C=O` [CO(2), carbon dioxide], the ipsilateral secretion weights entry (20-second exposure to CO(2) 30 minutes before allergen challenge, compared with no treatment) is given as “numerically reduced”. The sneezes entry (20-second exposure to CO(2) 30 minutes before allergen challenge, compared with no treatment, 12 subjects with SAR, p=0.05) is reported as “significant reduction”. Also, under “20-second exposure to CO(2) 30 minutes before allergen challenge, compared with no treatment, p=0.01”, the “bilateral runny nose symptoms” value was “significant reduction”. For the same compound, the “contralateral secretion weights (reflex secretory response, primary outcome)” value (20-second exposure to CO(2) 30 minutes before allergen challenge, compared with no treatment, p=0.04) is given as “significant reduction”. Besides, the “histamine levels in ipsilateral nasal secretions” value (after pretreatment with CO(2), increased significantly with sham treatment) was “did not increase”. Besides, the “sensation reported by subjects during exposure” value (during 20-second intranasal exposure to CO(2)) was “transient burning sensation”.
